Measurements published in patent publication US20070264355A1, “BINARY COMPOSITIONS AND METHODS FOR STERILIZATION” (Binary, LLC, priority 2005, published 2007).

Columns and labels:
Bacillus subtilis spores = test: Microbicidal activity of commonly used antiseptics against Bacillus subtilis spores; assay type: cell-based; conditions: inoculum 1865000 CFU
Protocol: (§1) The performance of commonly used antiseptics was tested against Bacillus subtilis and Staphylococcus aureus, following the general procedure of Example 1, to assess the improvement provided by the binary system over these compounds.
After 60 minutes of exposure to the organisms, the individual antiseptics, indicated in Table 15 and Table 16, were neutralized using the corresponding neutralizing solutions prepared as listed below in Materials. Chlorhexidine and IPA were neutralized with 500 microliters of a solution containing 3% Saponin, 3% Tween-80, 0.3% lecithin, and 0.1% histidine. Povidone Iodine was neutralized with 500 microliters of thiosulfate solution (2.4%).

Staphylococcus aureus = test: Microbicidal activity of commonly used antiseptics against Staphylococcus aureus; assay type: cell-based; conditions: inoculum 1475000 CFU
Protocol: as §1
[…] Chlorhexidine and IPA were neutralized with 500 microliters of a solution containing 3% Saponin, 3% Tween-80, 0.3% lecithin, and 0.1% histidine. Povidone Iodine was neutralized with 500 microliters of thiosulfate solution (2.4%).

[1] = two percent, compared to 70% isopropyl alcohol and 10% povidone-iodine; cited from earlier work

[H]/N=C(\N/C(=N/[H])NCCCCCCNC(=N)NC(=N)Nc1ccc(Cl)cc1)Nc1ccc(Cl)cc1 [Chlorhexidine, Chlorhexidine Gluconate]
Log 10 (CFU + 1) Survivors (Bacillus subtilis spores; Chlorhexidine 0.020% 60 min): 5.8
Log Reduction (Bacillus subtilis spores; Chlorhexidine 0.020% 60 min): 0.4
Total Viability (CFU) (Bacillus subtilis spores; Chlorhexidine 0.020% 60 min): 672000 CFU
Log 10 (CFU + 1) Survivors (Bacillus subtilis spores; Chlorhexidine 0.200% 60 min): 4.3
Log Reduction (Bacillus subtilis spores; Chlorhexidine 0.200% 60 min): 2.0
Total Viability (CFU) (Bacillus subtilis spores; Chlorhexidine 0.200% 60 min): 20020 CFU
Log 10 (CFU + 1) Survivors (Bacillus subtilis spores; Chlorhexidine 2% 60 min): 5.0
Log Reduction (Bacillus subtilis spores; Chlorhexidine 2% 60 min): 1.3
Total Viability (CFU) (Bacillus subtilis spores; Chlorhexidine 2% 60 min): 102200 CFU
Log 10 (CFU + 1) Survivors (Bacillus subtilis spores; Chlorhexidine 20% 60 min): 5.5
Log Reduction (Bacillus subtilis spores; Chlorhexidine 20% 60 min): 0.7
Total Viability (CFU) (Bacillus subtilis spores; Chlorhexidine 20% 60 min): 350000 CFU
Log 10 (CFU + 1) Survivors (Staphylococcus aureus; Chlorhexidine 0.020% 15 min): 0.0
Log Reduction (Staphylococcus aureus; Chlorhexidine 0.020% 15 min): 6.2
Total Viability (CFU) (Staphylococcus aureus; Chlorhexidine 0.020% 15 min): 0 CFU
Log 10 (CFU + 1) Survivors (Staphylococcus aureus; Chlorhexidine 0.200% 15 min): 0.0
Log Reduction (Staphylococcus aureus; Chlorhexidine 0.200% 15 min): 6.2
Total Viability (CFU) (Staphylococcus aureus; Chlorhexidine 0.200% 15 min): 0 CFU
Log 10 (CFU + 1) Survivors (Staphylococcus aureus; Chlorhexidine 2% 15 min): 0.0
Log Reduction (Staphylococcus aureus; Chlorhexidine 2% 15 min): 6.2
Total Viability (CFU) (Staphylococcus aureus; Chlorhexidine 2% 15 min): 0 CFU
Log 10 (CFU + 1) Survivors (Staphylococcus aureus; Chlorhexidine 20% 15 min): 0.0
Log Reduction (Staphylococcus aureus; Chlorhexidine 20% 15 min): 6.2
Total Viability (CFU) (Staphylococcus aureus; Chlorhexidine 20% 15 min): 0 CFU
prevention of catheter-related infections [1]: superior
